Source: patent US20110064694A1, “ANTI-HEPATITIS C ACTIVITY OF MESO-TETRAKIS-PORPHYRIN ANALOGUES” (YALE UNIVERSITY, priority 2009, published 2011)
Where two headings read alike, the source gives them in different places.

Key:
[1] = system: HCV genotype 1b (Con1) replicon; assay: Effect of serum concentration on anti-HCV activity, luciferase assay in Huh-luc/neo-ET cells; type: cell-based, Hepatitis C virus; conditions: for EC50: 72 hrs
Procedure: Cells were harvested after 72 hrs for luciferase activity assays.
Huh-luc/neo-ET cells were incubated with compound 1, 4 or 6 for 72 hrs and the anti-HCV activity was evaluated by measuring the reduction of reporter luciferase activities.

HBV = assay: Anti-HBV activity in 2.2.15 cells by Southern DNA hybridization; type: cell-based; conditions: read-out: Antiviral Activity EC50 HBV
Procedure: Determination of antiviral activities. Ff-luciferase reporter activity was used to monitor the replication of HCV replicons in Huhluc/neo-ET cells free from G418. Replicon cells were seeded at the density of 5×10^3 cells per well in 96-well plates. The following day, replicon cells were incubated in duplicates with DMSO or serially diluted tetraphenylporphyrin (TPP) analogues at 37″C. 72 hrs after co-incubation, cells were lysed with ice-cold passive lysis reagent after PBS wash, and the luciferase activity was measured with the luciferase assay kit (Promega) and Tecan FARCyte luminometer (GE Healthcare) following the manufacturers' descriptions. The relative light units (RLU) were adjusted as percentage readings of the compound-free controls and the 50% effective concentration (EC50) was determined from dose-effect curve by nonlinear regression analysis using Origin 6.1 (OriginLab Software). TPP analogues were also screened in vitro against HIV-I IIIB and HBV as previously described (26,41). Briefly 1×10^3 MT-2 cells per well were exposed in triplets to 0.1TC1D50/cell (50% of the tissue culture infectious dose) of HIV-1 IIIB and cultured in the presence of compounds. The EC50 values were estimated by MTT-based colorimetric quantitation of viral CPE after 5 days. Anti-HBV activities were evaluated in 2.2.15 cells by means of Southern DNA hybridization.

Huh-7 cells = assay: Cytotoxicity in Huh-7 cells (methylene blue or CellTiter-Glo); type: cell-based; conditions: Huh-7 cells, 3 days; read-out: Cytotoxicity CC50 Huh-7
Procedure: Determination of cytotoxicity and mitochondrial DNA toxicity. Exponentially growing Huh-7 cells were seeded at a density of 1×10^4 cells per well in a 24-well plate and incubated with TPP analogues for 3 days. Cells were fixed and stained with 0.5% methylene blue in 50% ethanol followed by extensive washing. After the plates were air dried, cells were solubilized in 1% sarkosyl and cell growth was determined from the extent of absorption by spectrophotometric measurements at 595 nm (Biotek Instruments). For compounds whose dark color interfered with 595-nm reading, cytotoxicity was measured by the CellTiter-Glo luminesecent cell viability assay following manufacturer's description (Promega). Cytotoxicity in MT-2 cells was determined from colorimetric quantitation of uninfected MT-2 cells after 5 days of coincubation.

[2] = system: HCV genotype 1b (Con1) replicon
Procedure: Quantification of HCV RNA and NS5A protein. Huhluc/neo-ET cells were seeded at the density of 1×10^5 cells per well in 6-well plate and treated with either DMSO control or up to 250 nM of compound 6. Cells were harvested after 24, 48, or 72 hrs of incubation and subjected to luciferase activity assay, RNA quantification and immunoblotting. Results were averaged from three independent repeats. Luciferase activity assay was done in triplets per experiment as aforementioned and RLU reading was normalized against the total protein level per sample determined from Bradford assay. Total RNA was isolated using RNeasy Mini Kit (QIAGEN) and the RNA concentrations were measured by spectrophotometry (GE Healthcare) followed by dilution into 50 ng/μL. Replicon RNA was quantitated in triplicates by amplifying the HCV 5′UTR using one-step real-time reverse transcriptase polymerase chain reactions (qRT-PCR). Each 20 μL replicate contained 100 ng of total RNA, 100 nM probe (6FAM-5′-[…]-3′-MGBNFQ, Applied Biosystems) and 200 nM forward and reverse primers (5′-[…]-3′, and 5′-[…]-3′ respectively, Yale University W.M. Keck Facility) (21), together with iScript reverse transcriptase and reaction mix for one-step RT-PCR (Bio-Rad Laboratories). Reactions were run in the iCycler iQ RealTime thermocycler detection system (Bio-Rad Laboratories) as follows: 10 min at 50° C., 5 min at 95° C., followed by 42 cycles at 95° C. for 15 sec and 60° C. for […]. Results were normalized against the β-actin mRNA levels in each sample (20).

CEM cells = assay: Cytotoxicity in CEM cells; conditions: read-out: Cytotoxicity CC50 CEM
[3] = system: HCV genotype 1b (Con1) replicon cells Huh-luc/neo-ET
Procedure: Reversibility of the action of compound 6 against genotype 1b HCV replicon. Huh-luc/neo-ET cells were seeded at a density of 2×10^5 cells per well in a 6-well plate, and were incubated for 12 days with DMSO control or up to 1 μM of compound 6 in the absence of G418. Cells were split every three days when media and compounds were replenished, and samples were collected for RNA quantification. compound 6 was removed on Day 12 when cells were split and cultured in the presence of 250 μg/ml of G418. Replicon cells were continuously monitored for another 12 days, during which cells were split and sampled whenever reaching confluence. Cell viability was measured by CellTiter-Glo luminescent cell viability assay following manufacturer's procedures (Promega), and the HCV RNA was quantitated by qRT-PCR and normalized as described above.
The goal of anti-HCV treatment is to completely eliminate the virus from infected cells. In order to assess the reversibility of the antiviral action and the possibility of replicon clearance, we incubated Huhluc/neo-ET cells with increasing concentrations of compound 6 for […] free from G418 (FIG. 4). On Day 12 compound 6 was removed and 250 μgml G418 was reintroduced while the replicon RNA level and cell growth were monitored for another 12 days.

cytochrome c = cytochrome c (Equus caballus, UniProt P00004); conditions: read-out: Kd, binding to cyt c; cited from earlier work
Sequence of cytochrome c (P00004 2-105 limits assumed): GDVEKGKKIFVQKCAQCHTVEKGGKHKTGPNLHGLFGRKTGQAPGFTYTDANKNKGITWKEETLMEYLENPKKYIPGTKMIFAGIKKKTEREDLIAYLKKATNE

## O=C(O)c1cc(C(=O)O)cc(-c2ccc(-c3c4nc(c(-c5ccc(-c6cc(C(=O)O)cc(C(=O)O)c6)cc5)c5ccc([nH]5)c(-c5ccc(-c6cc(C(=O)O)cc(C(=O)O)c6)cc5)c5nc(c(-c6ccc(-c7cc(C(=O)O)cc(C(=O)O)c7)cc6)c6ccc3[nH]6)C=C5)C=C4)cc2)c1 [Compound 6, Meso-teftakis-(3,5-dicarboxy-4,4′-biphenyl)porphyrin]
[1]; 5% FBS, read-out: EC50 5% FBS
  EC50: 13 ± 3 nM
[1]; 40% FBS, read-out: EC50 40% FBS
  EC50: 69 ± 11 nM
[1]; EC50 at 5% FBS as one fold
  Fold Change in EC50 5% FBS: 1.00
[1]; extrapolation of the plot of EC50 vs serum amount, read-out: EC50 0% FBS (Theoretical)
  EC50: 6.5 nM
[1]; read-out: EC50 10% FBS, 10% FBS
  EC50: 24 ± 5 nM
[1]; read-out: EC50 20% FBS, 20% FBS
  EC50: 39 ± 5 nM
[1]; relative to EC50 at 5% FBS
  Fold Change in EC50 10% FBS: 1.92 ± 0.22
  Fold Change in EC50 20% FBS: 3.20 ± 0.96
  Fold Change in EC50 40% FBS: 5.56 ± 0.85
HBV
  EC50: > 20000 nM
Huh-7 cells
  CC50: > 50000 nM
[2]; 72 hr vs 24 hr
  improvement of 72-hr EC50 compared with 24-hrs incubation, luciferase: over 3 fold
[2]; read-out: 24-hr EC50, replicon luciferase activity, 24 hrs incubation
  EC50: 57.8 nM
[2]; read-out: 48-hr EC50, replicon luciferase activity, 48 hrs incubation
  EC50: 19.2 nM
[2]; read-out: 72-hr EC50, replicon luciferase activity, 72 hrs incubation
  EC50: 17.6 nM
CEM cells
  CC50: > 50000 nM
[3]; 50 nM for 12 days, 6 days after the removal of inhibitor
  cells surviving under G418: 8.5%
[3]; 50 nM for 12 days, 12 days after removal of inhibitor
  replicon-positive cells rebounded: 13.1%
[3]; 100 nM for 12 days, end of the experiment
  cells surviving under G418: 0.007%
[3]; 300 nM and 1 μM for 12 days, 9 days after coincubation with G418
  cell viability after G418 reintroduction: no longer viable
[3]; 300 nM and above, after 12 days of exposure
  reduction in the HCV RNA levels: approximately 4.5 1o916
[3]; 300 nM for 9 days, 15-day rebound period with G418
  cells surviving under G418: 0.4%
[3]; 1 μM for 9 days, 15-day rebound period with G418
  replicon clearance: achieved complete “cure”
[3]; up to 1 μM, 12 days
  toxicity in cells during the 12-day treatment: did not cause significant toxicity
Cytochrome c
  Kd: 1500 ± 170 nM
